# Ends that are not written are not given here. Peptide text beside a SMILES is read from it.
# What was measured:
# in vitro [1] = details: human, HeLa cells
# in vitro [2] = details: human, HeLa cells; remark: listed apart in the source
# HeLa cells = test: GFP-NLS protein transduction assay (flow cytometry: Pos cells %, viability %, relative fluorescence intensity; microscopy); details: GFP-NLS 5 μM; for cell viability: peptide 20 μM, Protocol B (Table 10.3e); for Cell viability (%) (±St. Dev.; n = 3): Protocol B, HeLa
# [3] = Cell viability (%) (±St. Dev.; n = 3)
# [4] = Cell viability (%) (±St Dev.; n = 3)
# [5] = Table 10.3e, shuttle 20 μM, 1 minute
# [6] = Table 10.3a, shuttle 50 μM, 10 seconds
# [7] = Table 10.1, shuttle 50 μM, 10 seconds
Compound,viability (in vitro [1]),"viability at 1 min, 10 µM (in vitro [2]; [3])",other results
HHHHHHHMAHLWESNARKFWKKAFAQHAAAHIAEA [FSD28],97 ± 1.11%,99.4 ± 4.04%,
HHHHHHWLKLLRRAAKKAARLYRKLLRKARKLHHHHHH [FSD2],55.8 ± 4.19%,,viability (in vitro [2]; [4]): 76.3 ± 5.99%
HHHHHHKWKIARAFARSLKKLYARLLARQAKTGHHHHHH [FSD15],98.3 ± 1.07%,,viability (in vitro [2]): 96.1 ± 2.61%
LHHHHHKLIHIWEAKLAKALAKALARRAAARQARA [FSD41],94.4 ± 2.81%,79.5 ± 0.33%,
HHHHHHLLKLWSRLLKLWTQGRRLKAKRAKA [FSD16],99.07 ± 0.73%,,viability (in vitro [2]; [4]): 88.2 ± 2.66%
HHHHHHKWKLARAFARAIKKLYARALRRQARTG [FSD8],42.3 ± 6.42%,,viability (in vitro [2]; [4]): 64.8 ± 7.59%
HHHHHHKWKLFWEAKLAKYARAAARQARAARQARA [FSD27],98 ± 0.63%,96.6 ± 4.94%,"viability at 1 min, 10 µM (in vitro [2]; cell viability): 83.9 to 98%"
HHHHHHHHRQRRRWEARGFLGGGGYARAARQARAA [FSD39],99.2 ± 0.61%,97.3 ± 2.07%,
KWKLFKKIGAVLKVLTTGGGSGGGSGGGSGYARAAARQARA [CM18-L3-PTD4],98.4 ± 0.83%,,"viability at 1 min, 20 µM (in vitro [2]): 71.9 ± 6%; cell viability (HeLa cells; 1 minute): increased cell viability"
HHHHHHWARLARAFARAIKKLYARALRRQARTG [FSD7],60.9 ± 7.59%,,viability (in vitro [2]; [4]): 38.5 ± 3.48%
HHHHHHKWKLARAFARALRAIKKLYARALRRQARTG [FSD11],46.2 ± 1.35%,,viability (in vitro [2]; [4]): 60.9 ± 7.59%
GHHHHHHHLIHIWEAKLAKLAKALARAAARQARAK [FSD38],95 ± 2.78%,98.1 ± 7.35%,
HHHKWKLFKKIGAVLKVLTTGYARAAARQARA [3His-CM18-PTD4],82 ± 6.81%,,Cell viability (%) (±St. Dev.; n = 3) (HeLa cells; [5]): 39.2 ± 3.3%
HHHHHHCLLKKWEAKLAKKIGGGGRQARAKALAKA [FSD30],97.4 ± 2.06%,99.1 ± 0.52%,
HHHHHHKWKLARAFARAIKKLYARALRRQARTGHHHHHH [FSD9],36.1 ± 3.41%,79.5 ± 6.33%,"viability (in vitro [2]; [4]): 67.3 ± 5.19%; viability at 1 min, 8 µM (in vitro [2]; [3]): 82.3 ± 7.16%; viability at 2 min, 5 µM (in vitro [2]; [3]): 45.6 ± 3.64%"
KWKLFKKIGAVLKVLTTGGGSGGGSYARAAARQARA [CM18-L2-PTD4],93.7 ± 3.07%,,Cell viability (%) (±St. Dev.; n = 3) (HeLa cells; [5]): 64.0 ± 1.3%; cell viability (HeLa cells; 1 minute): increased cell viability

Compound,viability (in vitro [1]),"viability at 1 min, 10 µM (in vitro [2]; [3])",other results
CC[C@H](C)[C@H](NC(=O)[C@@H](NC(=O)[C@H](Cc1ccccc1)NC(=O)[C@@H](N)CCCCN)[C@@H](C)O)C(=O)N[C@H](C(=O)N[C@@H](Cc1ccccc1)C(=O)N1CCC[C@H]1C(=O)N[C@@H](Cc1c[nH]cn1)C(=O)N[C@@H](CC(N)=O)C(=O)N[C@@H](CCC(N)=O)C(=O)N[C@@H](CCCCN)C(=O)NCC(=O)N[C@@H](CC(N)=O)C(=O)N[C@@H](Cc1c[nH]c2ccccc12)C(=O)N[C@@H](CCCCN)C(=O)N[C@@H](CC(N)=O)C(=O)N[C@H](C(=O)N1CCC[C@H]1C(=O)N[C@@H](CO)C(=O)N[C@@H](CC(N)=O)C(=O)N[C@@H](Cc1ccc(O)cc1)C(=O)N[C@@H](Cc1c[nH]cn1)C(=O)N[C@@H](Cc1ccc(O)cc1)C(=O)N[C@@H](CS)C(=O)N1CCC[C@H]1C(=O)N[C@@H](Cc1ccc(O)cc1)C(=O)N[C@@H](C)C(=O)N[C@@H](CCCNC(=N)N)C(=O)N[C@@H](C)C(=O)N[C@@H](C)C(=O)N[C@@H](C)C(=O)N[C@@H](CCCNC(=N)N)C(=O)N[C@@H](CCC(N)=O)C(=O)N[C@@H](C)C(=O)N[C@@H](CCCNC(=N)N)C(=O)N[C@@H](C)C(=O)O)C(C)C)C(C)C [VSVG-PTD4],96.2 ± 2.57%,,Cell viability (%) (±St. Dev.; n = 3) (HeLa cells; [6]): 100%
HHHAHHHKWKLFKKIGAVLKVLTTGYARAAARQARA [HA-CM18-PTD4],53.2 ± 4.62%,,Cell viability (%) (±St. Dev.; n = 3) (HeLa cells; [5]): 68.3 ± 4.1%
HHHHAAVLKLWKRLLKLFRKGRRLKAKRAKAKR [FSD20],20.5 ± 3.53%,,viability (in vitro [2]; [4]): 65.4 ± 6.18%
ALLGLFIKWVKKVGTLFRKAKAGAQNRRAKAQKGK [FSD26],97.2 ± 1.53%,,viability (in vitro [2]; [4]): 59.3 ± 1.27%
HHHHHHHHRQRRRWEARGGFLGGGGYARAARQARA [FSD33],75.3 ± 4.19%,98.1 ± 1.73%,
HHHHHHKLIHIWEAKLFKKIRAAARQARARRAAKA [FSD34],96.4 ± 2.41%,97.9 ± 8.18%,"viability at 1 min, 10 µM (in vitro [2]; cell viability): 83.9 to 98%"
YGRKKRRQRRRCKWKLFKKIGAVLKVLTTG [TAT-CM18],44.8 ± 4.17%,,"Cell viability (%) (±St. Dev.; n = 3) (HeLa cells; [7]): 23.5 ± 1.1%; Cell viability (%) (±St. Dev.; n = 3) (HeLa cells; Table 10.3b, shuttle 50 μM, 10 seconds): 23.5 ± 1.1%"
CC[C@H](C)[C@H](N)C(=O)N[C@H](C(=O)N[C@@H](CCCNC(=N)N)C(=O)N[C@@H](Cc1c[nH]cn1)C(=O)N[C@@H](CCC(=O)O)C(=O)N[C@@H](Cc1c[nH]cn1)C(=O)N[C@@H](CS)C(=O)N[C@@H](CCSC)C(=O)N[C@H](C(=O)N[C@@H](Cc1c[nH]cn1)C(=O)N[C@@H](CC(C)C)C(=O)N[C@@H](Cc1c[nH]c2ccccc12)C(=O)N[C@@H](Cc1ccc(O)cc1)C(=O)N[C@@H](CCCCN)C(=O)N[C@@H](CC(N)=O)C(=O)N[C@@H](CC(C)C)C(=O)N[C@@H](C)C(=O)N[C@@H](CCCCN)C(=O)N[C@@H](Cc1ccc(O)cc1)C(=O)N[C@@H](CS)C(=O)N[C@@H](CO)C(=O)N[C@H](C(=O)N[C@@H](CO)C(=O)N[C@@H](Cc1c[nH]cn1)C(=O)N[C@@H](C)C(=O)N[C@@H](CCCNC(=N)N)C(=O)N[C@@H](CCCNC(=N)N)C(=O)N[C@@H](CC(C)C)C(=O)N[C@@H](C)C(=O)N[C@@H](CCCNC(=N)N)C(=O)N[C@@H](CCCNC(=N)N)C(=O)N[C@@H](CCCNC(=N)N)C(=O)N[C@@H](C)C(=O)N[C@@H](Cc1c[nH]cn1)C(=O)N[C@@H](Cc1c[nH]cn1)C(=O)O)[C@@H](C)O)[C@@H](C)CC)C(C)C [FSD32] (H-IVRHEHCMIHLWYKNLAKYCSTSHARRLARRRAHH-OH),98.36 ± 0.15%,99.2 ± 3.37%,
HHHHHHHHHHHHKWKLFKKIGAVLKVLTTGYARAAARQARA [12His-CM18-PTD4],97.5 ± 1.57%,,Cell viability (%) (±St. Dev.; n = 3) (HeLa cells; [5]): 33.4 ± 4.3%
KWKLFKKIGAVLKVLTTGGGSYARAAARQARA [CM18-L1-PTD4],84.3 ± 5.64%,,Cell viability (%) (±St. Dev.; n = 3) (HeLa cells; [5]): 50.1 ± 3.8%; cell viability (HeLa cells; 1 minute): increased cell viability
YHHHHHKWKKRWEAKLAKALRAAGRQARAKALAKA [FSD31],98.43 ± 0.43%,97.8 ± 4.22%,
CC[C@H](C)[C@H](NC(=O)[C@H](Cc1c[nH]cn1)NC(=O)[C@@H](NC(=O)[C@H](CC(C)C)NC(=O)[C@H](CS)NC(=O)[C@H](Cc1c[nH]cn1)NC(=O)[C@H](Cc1c[nH]cn1)NC(=O)[C@H](Cc1c[nH]cn1)NC(=O)[C@H](Cc1c[nH]cn1)NC(=O)[C@H](Cc1c[nH]cn1)NC(=O)[C@@H](N)Cc1c[nH]cn1)[C@@H](C)CC)C(=O)N[C@@H](Cc1c[nH]c2ccccc12)C(=O)N[C@@H](CCC(=O)O)C(=O)N[C@@H](C)C(=O)N[C@@H](CCCCN)C(=O)N[C@@H](CC(C)C)C(=O)N[C@@H](C)C(=O)N[C@@H](CCCCN)C(=O)N[C@@H](CCCCN)C(=O)N[C@@H](CS)C(=O)NCC(=O)NCC(=O)NCC(=O)NCC(=O)N[C@@H](Cc1ccc(O)cc1)C(=O)N[C@@H](C)C(=O)N[C@@H](CCCNC(=N)N)C(=O)N[C@@H](C)C(=O)N[C@@H](C)C(=O)N[C@@H](C)C(=O)N[C@@H](CCCNC(=N)N)C(=O)N[C@@H](CCC(N)=O)C(=O)N[C@@H](C)C(=O)N[C@@H](CCCNC(=N)N)C(=O)N[C@@H](C)C(=O)O [FSD36] (H-HHHHHHCLIHIWEAKLAKKCGGGGYARAAARQARA-OH),97 ± 1.99%,98.9 ± 0.38%,
"KWKLFKKIGAVLKVLTTG [CM18, reference compound]",99.4 ± 0.14%,,"Cell viability (%) (±St. Dev.; n = 3) (HeLa cells; Table 10.4, peptide 50 μM, 10 seconds): 95 ± 1.2%"
HHHHHHKLLKRWEAKLAKALAKALAKHLAKALAKA [FSD35],96.1 ± 1.67%,81.7 ± 3.45%,
HHHHHHKWKLFKKIGAVLKVLTTGRRRRRRRRR [His-CM18-9Arg],31.63 ± 0.11%,,Cell viability (%) (±St. Dev.; n = 3) (HeLa cells; [7]): 45.8 ± 5.4%; Cell viability (%) (±St. Dev.; n = 3) (HeLa cells; [6]): 45.8 ± 3.53%
YGRKKRYMLRLWYQNLRMYCKKAYAQHRARQHAKL [FSD40],98.6 ± 1.08%,83.9 ± 4.16%,"viability at 1 min, 10 µM (in vitro [2]; cell viability): 83.9 to 98%"

# From patent publication US12286632B2, “Rationally-designed synthetic peptide shuttle agents for delivering polypeptide cargos from an extracellular space to the cytosol and/or nucleus of a target eukaryotic cell, uses thereof, methods and kits relating to same” (Feldan Bio Inc., priority 2016, dated 2025)
